In this assay the target is T1, human GPR84 receptor (Homo sapiens, UniProt Q9NQS5).
T1 construct: frozen aliquots prepared by acCELLerate; host or cells: CHO-K1
Nature of the assay: cAMP HTRF assay for identification of cellular GPR84 antagonists. The assay is classed as cell-based. To be noted: CHO-K1 cells stably expressing human GPR84; Forskolin + agonist 6-OAU (EC80); average or median values. The gist of the method: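 IC50 came from 4-parameter fits over 20 μM–0.07 nM (11 points, duplicate), normalized between DMSO (0%) and agonist-free (100% inhibition) wells. Readout: cAMP-d2/Eu-cryptate HTRF in hGPR84 CHO-K1 cells given forskolin plus agonist, compound preincubated 30 min at room temperature.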
Background: TR-FRET usually uses a lanthanide donor and a delayed reading to cut background.

As usually defined, the IC50 is the concentration needed to halve the response being measured.

T1 sequence (Q9NQS5 whole entry): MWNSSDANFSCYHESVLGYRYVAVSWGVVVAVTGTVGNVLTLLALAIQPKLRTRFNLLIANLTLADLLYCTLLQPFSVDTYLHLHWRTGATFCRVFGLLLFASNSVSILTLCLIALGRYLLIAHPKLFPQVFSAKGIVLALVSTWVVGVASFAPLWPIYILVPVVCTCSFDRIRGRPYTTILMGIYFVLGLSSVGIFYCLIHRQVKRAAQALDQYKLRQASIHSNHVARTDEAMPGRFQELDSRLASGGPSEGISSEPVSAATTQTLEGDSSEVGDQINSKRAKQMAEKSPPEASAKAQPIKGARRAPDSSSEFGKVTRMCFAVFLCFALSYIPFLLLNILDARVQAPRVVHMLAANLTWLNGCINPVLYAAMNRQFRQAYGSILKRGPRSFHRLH

`Cc1c(C(=O)NCc2ccon2)oc2c1-c1nn(CC3COc4ncccc4O3)cc1CC2` (single isomer, unassigned) [Example 55-1]: the IC50 was found to be 340 nM.

For `Cc1c(C(=O)NC[C@@H]2COCCO2)oc2c1-c1nn(Cc3ccccn3)cc1C1(CC1)C2` [Example 150], the IC50 turned out to be 11 nM. The value for `O=C(NC[C@@H]1CCCO1)c1oc2c(c1C(F)(F)F)-c1nn(Cc3ccccn3)cc1C1(CCC1)C2` [Example 274, 2′-(Pyridin-2-ylmethyl)-N-[(2S)-tetrahydrofuran-2-ylmethyl]-8′-(trifluormethyl)-2′,5′-dihydrospiro[cyclobutan-1,4′-furo[2,3-g]indazol]-7′-carboxamide] was 10 nM. For `Cc1c(C(=O)NCC2CC(C)CO2)oc2c1-c1nn(Cc3ccccn3)cc1CC2` (mixture of isomers) [Example 175] the value was 61 nM. For `Cc1c(C(=O)NC[C@@H]2COCCO2)oc2c1-c1nn(C[C@@H]3COCCO3)cc1CC2` [Example 88, N,2-bis[(2R)-1,4-dioxan-2-ylmethyl]-8-methyl-4,5-dihydro-2H-furo[2,3-g]indazole-7-carboxamide] the value was 110 nM. Turning to `Cc1cc(Cn2cc3c(n2)-c2c(oc(C(=O)NC[C@@H]4COCCO4)c2C)CC3)cc(C)n1` [Example 82, 2-[(2,6-dimethylpyridin-4-yl)methyl]-N-[(2R)-1,4-dioxan-2-ylmethyl]-8-methyl-4,5-dihydro-2H-furo[2,3-g]indazole-7-carboxamide], the IC50 was 440 nM. The value for `Cc1ccc(Cn2cc3c(n2)-c2c(oc(C(=O)NC[C@@H]4COCCO4)c2C(F)(F)F)CC32CCC2)nc1` [Example 278, N-[(2R)-1,4-Dioxan-2-ylmethyl]-2′-[(5-methylpyridin-2-yl)methyl]-8′-(trifluormethyl)-2′,5′-dihydrospiro[cyclobutan-1,4′-furo[2,3-g]indazol]-7′-carboxamide] was 10 nM; that for `COc1cccc(-c2cc(CNC(=O)c3oc4c(c3C)-c3nn(Cc5ccccn5)cc3CC4)no2)c1` [Example 14, N-{[5-(3-methoxyphenyl)-1,2-oxazol-3-yl]methyl}-8-methyl-2-(pyridin-2-ylmethyl)-4,5-dihydro-2H-furo[2,3-g]indazole-7-carboxamide] was 4790 nM; that for `CC1(C)Cc2oc(C(=O)NC[C@@H]3COCCO3)c(C(F)(F)F)c2-c2nn(C[C@H]3COCCO3)cc21` [Example 267, N-{[(2R)-1,4-dioxan-2-yl]methyl}-2-{[(2S)-1,4-dioxan-2-yl]methyl}-4,4-dimethyl-8-(trifluoromethyl)-4,5-dihydro-2H-furo[2,3-g]indazole-7-carboxamide] was 57 nM. The value for `Cc1ccc(Cn2cc3c(n2)-c2c(oc(C(=O)NC[C@@H]4CCCO4)c2C)CC3)nc1` [Example 64, 8-methyl-2-[(5-methylpyridin-2-yl)methyl]-N-[(2S)-tetrahydrofuran-2-ylmethyl]-4,5-dihydro-2H-furo[2,3-g]indazole-7-carboxamide] was 28 nM.

For the molecule `O=C(NCc1cnc(C2CC2)cn1)c1oc2c(c1C(F)(F)F)-c1nn(C[C@H]3COCCO3)cc1CC2` [Example 321, N-[(5-cyclopropylpyrazin-2-yl)methyl]-2-{[(2S)-1,4-dioxan-2-yl]methyl}-8-(trifluoromethyl)-4,5-dihydro-2H-furo[2,3-g]indazole-7-carboxamide], the IC50 worked out at 3 nM. For `Cc1c(C(=O)NC[C@@H]2CCCO2)oc2c1-c1nn(C[C@@H]3COCCO3)cc1CC2` [Example 87, 2-[(2R)-1,4-dioxan-2-ylmethyl]-8-methyl-N-[(2S)-tetrahydrofuran-2-ylmethyl]-4,5-dihydro-2H-furo[2,3-g]indazole-7-carboxamide] the value was 200 nM. For `Cn1cnc(CNC(=O)c2oc3c(c2C(F)(F)F)-c2nn(C[C@H]4COCCO4)cc2CC3)c1` [Example 229, 2-[(2S)-1,4-Dioxan-2-ylmethyl]-N-[(1-methyl-1H-imidazol-4-yl)methyl]-8-(trifluormethyl)-4,5-dihydro-2H-furo[2,3-g]indazol-7-carboxamide] the value was 89 nM; for `Cc1c(C(=O)NC[C@@H]2CCCO2)oc2c1-c1nn(C[C@@H]3CCCO3)cc1CC2` [Example 107, 8-methyl-N,2-bis[(2S)-tetrahydrofuran-2-ylmethyl]-4,5-dihydro-2H-furo[2,3-g]indazole-7-carboxamide], 35 nM; for `CCC(=O)C(=O)N1CCC(Cn2cc3c(n2)-c2c(oc(C(=O)NC[C@@H]4COCCO4)c2C(F)(F)F)C[C@H]3C)CC1` (single isomer, unassigned) [Example 296, (4R or 4S)-N-{[(2R)-1,4-dioxan-2-yl]methyl}-4-methyl-2-{[1-(2-oxobutanoyl)piperidin-4-yl]methyl}-8-(trifluoromethyl)-4,5-dihydro-2H-furo[2,3-g]indazole-7-carboxamide], 9 nM. The value for `Cc1c(C(=O)NC[C@@H]2CCCO2)oc2c1-c1nn(C[C@@H]3CCOC3)cc1CC2` [Example 113, 8-methyl-N-[(2S)-tetrahydrofuran-2-ylmethyl]-2-[(3S)-tetrahydrofuran-3-ylmethyl]-4,5-dihydro-2H-furo[2,3-g]indazole-7-carboxamide] was 91 nM; that for `CC1CCC(CNC(=O)c2oc3c(c2C(F)(F)F)-c2nn(CC4COCCO4)cc2CC3)O1` (single isomer, unassigned) [Example 224-1, 2-{[(2S)-1,4-dioxan-2-yl]methyl}-N-{[(2R or 2S,5R or 5S)-5-methyloxolan-2-yl]methyl}-8-(trifluoromethyl)-4,5-dihydro-2H-furo[2,3-g]indazole-7-carboxamide] was 16 nM; that for `Cc1c(C(=O)NCc2cnoc2)oc2c1-c1nn(Cc3ccccn3)cc1CC2` [Example 24, 8-methyl-N-(1,2-oxazol-4-ylmethyl)-2-(pyridin-2-ylmethyl)-4,5-dihydro-2H-furo[2,3-g]indazole-7-carboxamide] was 6560 nM. On to `Cc1c(C(=O)NC[C@@H]2COCCO2)oc2c1-c1nn(CC3COC3)cc1CC2` [Example 92, N-[(2R)-1,4-dioxan-2-ylmethyl]-8-methyl-2-(oxetan-3-ylmethyl)-4,5-dihydro-2H-furo[2,3-g]indazole-7-carboxamide], for which the IC50 was found to be 130 nM. For `Cc1ccc(Cn2cc3c(n2)-c2c(oc(C(=O)NC[C@@H]4CCCO4)c2C(F)(F)F)CC3)cn1` [Example 192] the value was 6 nM; for `C[C@@H]1Cc2oc(C(=O)NC[C@@H]3CCCO3)c(C(F)(F)F)c2-c2nn(CC3CCOCC3)cc21` [Example 264, (4 or 4S)-4-methyl-2-[(oxan-4-yl)methyl]-N-{[(2S)-oxolan-2-yl]methyl}-8-(trifluoromethyl)-4,5-dihydro-2H-furo[2,3-g]indazole-7-carboxamide], 13 nM; for `Cc1c(C(=O)NC[C@@H]2COCCO2)oc2c1-c1nn(C[C@@H]3CCCO3)cc1CC2` [Example 108, N[(2R)-1,4-dioxan-2-ylmethyl]-8-methyl-2-[(2S)-tetrahydrofuran-2-ylmethyl]-4,5-dihydro-2H-furo[2,3-g]indazole-7-carboxamide], 58 nM. For `Cc1c(C(=O)NC[C@@H]2COCCO2)oc2c1-c1nn(CC3CC3)cc1CC2` [Example 49, 2-(cyclopropylmethyl)-N-[(2R)-1,4-dioxan-2-ylmethyl]-8-methyl-4,5-dihydro-2H-furo[2,3-g]indazole-7-carboxamide] the value was 110 nM; for `O=C(NC[C@H]1COCCO1)c1oc2c(c1C(F)(F)F)-c1nn(C[C@@H]3COCCO3)cc1CC2` [Example 301, 2-{[(2R)-1,4-dioxan-2-yl]methyl}-N-{[(2S)-1,4-dioxan-2-yl]methyl}-8-(trifluoromethyl)-4,5-dihydro-2H-furo[2,3-g]indazole-7-carboxamide], 723 nM; for `Cc1c(C(=O)NC[C@@H]2COCCO2)oc2c1-c1nn(CCNC(=O)OC(C)(C)C)cc1CC2` [Example 140, tert-butyl [2-(7-{[(2R)-1,4-dioxan-2-ylmethyl]carbamoyl}-8-methyl-4,5-dihydro-2H-furo[2,3-g]indazol-2-yl)ethyl]carbamate], 83 nM. As for `Cc1c(C(=O)NC[C@@H]2COCCO2)oc2c1-c1nn(C[C@H]3CCCO3)cc1CC2` [Example 106, N[(2R)-1,4-dioxan-2-ylmethyl]-8-methyl-2-[(2R)-tetrahydrofuran-2-ylmethyl]-4,5-dihydro-2H-furo[2,3-g]indazole-7-carboxamide], the IC50 was determined as 77 nM.

Turning to `O=C(NC[C@@H]1CCCO1)c1oc2c(c1C(F)(F)F)-c1nn(C[C@H]3COCCO3)cc1C1(CCC1)C2` [Example 271, 2′-[(2S)-1,4-dioxan-2-ylmethyl]-N-[(2S)-tetrahydrofuran-2-ylmethyl]-8′-(trifluormethyl)-2′,5′-dihydrospiro[cyclobutan-1,4′-furo[2,3-g]indazol]-7′-carboxamide], the IC50 came out at 26 nM. For `Cc1c(C(=O)NC[C@@H]2CCCO2)oc2c1-c1nn(Cc3cc(F)ccn3)cc1CC2` [Example 182] the value was 168 nM. With `C[C@@H]1Cc2oc(C(=O)NC[C@@H]3CCCO3)c(C(F)(F)F)c2-c2nn(CC3CCN(C(=O)C4(C)CC4)CC3)cc21` (single isomer, unassigned) [Example 298, (4R or 4S)-4-methyl-2-{[1-(1-methylcyclopropane-1-carbonyl)piperidin-4-yl]methyl}-N-{[(2S)-oxolan-2-yl]methyl}-8-(trifluoromethyl)-4,5-dihydro-2H-furo[2,3-g]indazole-7-carboxamide], the IC50 amounted to 9 nM.

As to `Cc1c(C(=O)NCc2ncon2)oc2c1-c1nn(Cc3ccccn3)cc1CC2` [Example 5], the IC50 was found to be 1410 nM. For `Cc1c(C(=O)NC[C@@H]2CCCO2)oc2c1-c1nn(C[C@@H]3CCO3)cc1CC2` [Example 99, 8-methyl-2-[(2S)-oxetan-2-ylmethyl]-N-[(2S)-tetrahydrofuran-2-ylmethyl]-4,5-dihydro-2H-furo[2,3-g]indazole-7-carboxamide] the value was 210 nM.
